According to patent US20150010928A1, “MEANS AND METHODS FOR ASSESSING AN ENDOCRINE DISEASE OR DISORDER” (priority 2012, published 2015):
Marks after values point to notes of the source that are not given here. One block for each compound: values may come before it.

Experiments:
female rats = test: Plasma metabolite profiling (GC-MS, LC-MS, SPE-LC-MS) in female rats dosed once daily over 28 days (OECD 407); assay type: in vivo, rat; conditions: for 3-O-Methylsphingosine (d18:1), ratio versus control / 5-O-Methylsphingosine (d18:1), ratio versus control / 16-Methylheptadecanoic acid, ratio versus control / 17-Methyloctadecanoic acid, ratio versus control / Arachidonic acid (C20:cis[5,8,11,14]4), ratio versus control / Behenic acid (C22:0), ratio versus control / Cholesterol, ratio versus control / Choline plasmalogen No 03, ratio versus control / Docosahexaenoic acid (C22:cis[4,7,10,13,16,19]6), ratio versus control / Galactose, lipid fraction, ratio versus control / Lignoceric acid (C24:0), ratio versus control / Lysophosphatidylcholine (C17:0), ratio versus control / Malate, ratio versus control / Nervonic acid (C24:cis[15]1), ratio versus control / Sphingomyelin (d18:2, C16:0), ratio versus control / Stearic acid (C18:0), ratio versus control / Tricosanoic acid (C23:0), ratio versus control / Uric acid, ratio versus control / alpha-Tocopherol, ratio versus control / erythro-Sphingosine (d18:1), ratio versus control / myo-Inositol, lipid fraction, ratio versus control / myo-Inositol-2-phosphate, lipid fraction, ratio versus control / threo-Sphingosine (d18:1), ratio versus control: female rats, plasma, low dose
Description: Each dose group in the studies consisted of five rats per sex. Additional groups of each 5 male and female animals served as controls. […] All animals of the animal population were kept under the same constant temperature (20-24±3° C.) and the same constant humidity (30-70%). The animals of the animal population were fed ad libitum. The food to be used was essentially free of chemical or microbial contaminants. Drinking water was also offered ad libitum. Accordingly, the water was free of chemical and microbial contaminants as laid down in the European Drinking Water Directive 98/83/EG. The illumination period was 12 hours light followed by 12 hours darkness (12 hours light, from 6:00 to 18:00, and 12 hours darkness, from 18:00 to 6:00). […] The test substances (compounds) in the Tables 1 to 17 below were dosed and administered as described in the Table 18.
In the morning of day 7, 14, and 28, blood was taken from the retroorbital venous plexus from fasted anaesthetized animals. From each animal, 1 ml of blood was collected with EDTA as anticoagulant. The samples were centrifuged for generation of plasma. All plasma samples were covered with a N2 atmosphere and then stored at −80° C. until analysis.
For mass spectrometry-based metabolite profiling analyses plasma samples were extracted and a polar and a non-polar (lipid) fraction was obtained. For GC-MS analysis, the non-polar fraction was treated with methanol under acidic conditions to yield the fatty acid methyl esters. Both fractions were further derivatised with O-methyl-hydroxyamine hydrochloride and pyridine to convert Oxogroups to O-methyloximes and subsequently with a silylating agent before analysis. In LC-MS analysis, both fractions were reconstituted in appropriate solvent mixtures. HPLC was performed by gradient elution on reversed phase separation columns. Mass spectrometric detection which allows target and high sensitivity MRM (Multiple Reaction Monitoring) profiling in parallel to a full screen analysis was applied as described in WO2003073464.
Steroids and their metabolites were measured by online SPE-LC-MS (Solid phase extraction-LC-MS).
Following comprehensive analytical validation steps, the data for each analyte were normalized against data from pool samples. These samples were run in parallel through the whole process to account for process variability. The significance of treatment group values specific for sex, treatmentduration and metabolite was determined by comparing means of the treated groups to the means of the respective untreated control groups using WELCH-test and quantified with treatment ratios versus control and p-values.
The identification of the most important biomarkers per toxicity pattern was done by a ranking of the analytes in the tables below. Therefore the metabolic changes in reference treatments of a given pattern (shown in the table) were compared with changes of the same metabolite in other unrelated treatments. […] The maximum absolute value of the respective TVALUE was taken to indicate the most important metabolite for the pattern.

male rats = test: Plasma metabolite profiling (GC-MS, LC-MS, SPE-LC-MS) in male rats dosed once daily over 28 days (OECD 407); assay type: in vivo, rat; conditions: male rats, plasma, high dose, day 7
How it was run: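 Polar and lipid fractions profiled by GC-MS and LC-MS/MRM, steroids by online SPE-LC-MS; pool-normalized data compared to controls by Welch test as treatment ratios and p-values.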

3-O-Methylsphingosine (d18:1), ratio versus control (female rats; day 7): 0.25 * | 5-O-Methylsphingosine (d18:1), ratio versus control (female rats; day 7): 0.27 * | 16-Methylheptadecanoic acid, ratio versus control (female rats; day 7): 0.64 * | 17-Methyloctadecanoic acid, ratio versus control (female rats; day 7): 0.7 * | Arachidonic acid (C20:cis[5,8,11,14]4), ratio versus control (female rats; day 7): 0.59 * | Behenic acid (C22:0), ratio versus control (female rats; day 7): 0.45 * | Cholesterol, ratio versus control (female rats; day 7): 0.55 * | Choline plasmalogen No 03, ratio versus control (female rats; day 7): 0.74 * | Docosahexaenoic acid (C22:cis[4,7,10,13,16,19]6), ratio versus control (female rats; day 7): 0.52 * | Galactose, lipid fraction, ratio versus control (female rats; day 7): 0.51 * | Lignoceric acid (C24:0), ratio versus control (female rats; day 7): 0.45 * | Lysophosphatidylcholine (C17:0), ratio versus control (female rats; day 7): 0.8 * | Malate, ratio versus control (female rats; day 7): 0.98 * | Nervonic acid (C24:cis[15]1), ratio versus control (female rats; day 7): 0.45 * | Sphingomyelin (d18:2, C16:0), ratio versus control (female rats; day 7): 0.55 * | Stearic acid (C18:0), ratio versus control (female rats; day 7): 0.63 * | Tricosanoic acid (C23:0), ratio versus control (female rats; day 7): 0.32 * | Uric acid, ratio versus control (female rats; day 7): 0.73 * | alpha-Tocopherol, ratio versus control (female rats; day 7): 0.5 * | erythro-Sphingosine (d18:1), ratio versus control (female rats; day 7): 0.29 * | myo-Inositol, lipid fraction, ratio versus control (female rats; day 7): 0.62 * | myo-Inositol-2-phosphate, lipid fraction, ratio versus control (female rats; day 7): 0.48 * | threo-Sphingosine (d18:1), ratio versus control (female rats; day 7): 0.33 * | 3-O-Methylsphingosine (d18:1), ratio versus control (female rats; day 14): 0.55 * | 5-O-Methylsphingosine (d18:1), ratio versus control (female rats; day 14): 0.58 * | 16-Methylheptadecanoic acid, ratio versus control (female rats; day 14): 0.72 * | 17-Methyloctadecanoic acid, ratio versus control (female rats; day 14): 0.73 * | Arachidonic acid (C20:cis[5,8,11,14]4), ratio versus control (female rats; day 14): 0.66 * | Behenic acid (C22:0), ratio versus control (female rats; day 14): 0.52 * | Cholesterol, ratio versus control (female rats; day 14): 0.66 * | Choline plasmalogen No 03, ratio versus control (female rats; day 14): 0.8 * | Docosahexaenoic acid (C22:cis[4,7,10,13,16,19]6), ratio versus control (female rats; day 14): 0.71 * | Galactose, lipid fraction, ratio versus control (female rats; day 14): 0.66 * | Lignoceric acid (C24:0), ratio versus control (female rats; day 14): 0.53 * | Lysophosphatidylcholine (C17:0), ratio versus control (female rats; day 14): 0.9 * | Malate, ratio versus control (female rats; day 14): 0.75 * | Nervonic acid (C24:cis[15]1), ratio versus control (female rats; day 14): 0.7 * | Sphingomyelin (d18:2, C16:0), ratio versus control (female rats; day 14): 0.74 * | Stearic acid (C18:0), ratio versus control (female rats; day 14): 0.83 * | Tricosanoic acid (C23:0), ratio versus control (female rats; day 14): 0.65 * | Uric acid, ratio versus control (female rats; day 14): 0.72 * | alpha-Tocopherol, ratio versus control (female rats; day 14): 0.65 * | erythro-Sphingosine (d18:1), ratio versus control (female rats; day 14): 0.61 * | myo-Inositol, lipid fraction, ratio versus control (female rats; day 14): 0.76 * | myo-Inositol-2-phosphate, lipid fraction, ratio versus control (female rats; day 14): 0.66^ | threo-Sphingosine (d18:1), ratio versus control (female rats; day 14): 0.65 * | 3-O-Methylsphingosine (d18:1), ratio versus control (female rats; day 28): 0.44 * | 5-O-Methylsphingosine (d18:1), ratio versus control (female rats; day 28): 0.47 * | 16-Methylheptadecanoic acid, ratio versus control (female rats; day 28): 0.69 * | 17-Methyloctadecanoic acid, ratio versus control (female rats; day 28): 0.86 * | Arachidonic acid (C20:cis[5,8,11,14]4), ratio versus control (female rats; day 28): 0.46 * | Behenic acid (C22:0), ratio versus control (female rats; day 28): 0.57 * | Cholesterol, ratio versus control (female rats; day 28): 0.43 * | Choline plasmalogen No 03, ratio versus control (female rats; day 28): 0.57 * | Docosahexaenoic acid (C22:cis[4,7,10,13,16,19]6), ratio versus control (female rats; day 28): 0.43 * | Galactose, lipid fraction, ratio versus control (female rats; day 28): 0.62 * | Lignoceric acid (C24:0), ratio versus control (female rats; day 28): 0.44 * | Lysophosphatidylcholine (C17:0), ratio versus control (female rats; day 28): 0.81 * | Malate, ratio versus control (female rats; day 28): 0.66 * | Nervonic acid (C24:cis[15]1), ratio versus control (female rats; day 28): 0.43 * | Sphingomyelin (d18:2, C16:0), ratio versus control (female rats; day 28): 0.62 * | Stearic acid (C18:0), ratio versus control (female rats; day 28): 0.66 * | Tricosanoic acid (C23:0), ratio versus control (female rats; day 28): 0.42 * | Uric acid, ratio versus control (female rats; day 28): 0.57 * | alpha-Tocopherol, ratio versus control (female rats; day 28): 0.46 * | erythro-Sphingosine (d18:1), ratio versus control (female rats; day 28): 0.51 * | myo-Inositol, lipid fraction, ratio versus control (female rats; day 28): 0.75 * | myo-Inositol-2-phosphate, lipid fraction, ratio versus control (female rats; day 28): 0.54 * | threo-Sphingosine (d18:1), ratio versus control (female rats; day 28): 0.57 *
Structure (SMILES): O=c1c(-c2ccc(O)cc2)coc2cc(O)cc(O)c12 [Genistein]

Cholesterol (female rats; f7, high dose, Table 14a): 0.17 * | Choline plasmalogen No 02 (female rats; f7, high dose, Table 14a): 0.3 * | Lignoceric acid (C24:0) (female rats; f7, high dose, Table 14a): 0.27^ | Sphingomyelin (d18:1, C16:0) (female rats; f7, high dose, Table 14a): 0.12 * | Sphingomyelin (d18:2, C16:0) (female rats; f7, high dose, Table 14a): 0.19 * | erythro-Sphingosine (d18:1) (female rats; f7, high dose, Table 14a): 0.03 * | Alanine, ratio versus control (male rats): 0.88 * | Androstenedione, ratio versus control (male rats): 0.42 * | Cholesterol, ratio versus control (male rats): 0.28 * | Glycine, ratio versus control (male rats): 0.86 * | Heptadecanoic acid (C17:0), ratio versus control (male rats): 0.56 * | Testosterone, ratio versus control (male rats): 0.59 * | Threonine, ratio versus control (male rats): 0.88 * | Uric acid, ratio versus control (male rats): 0.7 * | alpha-Tocopherol, ratio versus control (male rats): 0.32 *
Structure (SMILES): C#C[C@]1(OC(C)=O)CC[C@H]2[C@@H]3CCC4=CC(=O)CC[C@@H]4[C@H]3CC[C@@]21C [Norethindrone acetate]
